Results on eleven compounds are retold here after US4327222A, “3,4-Diarylisoxazol-5-acetic acids and process for making same” (priority 1979, dated 1982).

Series [1] relates to carrageenin-induced paw edema. Description: Anti-inflammatory: carrageenin-induced paw edema test in the rat (modified Winter et al.). To be noted: for ED50: po, read-out: ED50 p.o. Anti-inflammatory (Carrageenin). It is filed as in vivo. On the technique in general: Carrageenan injected into the paw causes an acute inflammation.
Series [2] deals with phenylquinone-induced muscular writhing. Nature of the series: Analgesic: phenylquinone-induced muscular writhing test in mice (modified Siegmund et al.). The format is in vivo. The conditions noted are these: for ED50: Mus musculus, po, read-out: ED50 p.o. Analgesic (Phenylquinone).
The subject of the next series is yeast-induced fever. Nature of the series: Anti-pyretic: yeast-induced fever test in rats. To be noted: Rattus norvegicus, po, read-out: ED50 p.o. Anti-Pyretic (Yeast). It is filed as in vivo.
The nature of series [3]: in vivo. The format is in vivo. The conditions noted are these: rat, in vivo, po; rats; read-out: Acute Toxicity (LD50) p.o. Here is the method:
(§1) Acute toxicities are determined in rats and in mice and the LD50 's are calculated according to the method of Litchfield and Wilcoxon, J.Pharmacol.Exp. Therap.

The nature of series [4]: in vivo. The conditions noted are these: mouse, po, mice, read-out: Acute Toxicity (LD50) p.o. Here is the method:
(§2) 138, 405 (1962), both in the rat. […] Acute toxicities are determined in rats and in mice and the LD50 's are calculated according to the method of Litchfield and Wilcoxon, J.Pharmacol.Exp. Therap. 96, 99 (1949).

The next series deals with rats. Nature of the series: in vivo. The format is in vivo. How it is done: as §1
The next series concerns cotton pellet granuloma. Nature of the series: Antigranuloma: cotton pellet granuloma test in the rat. It is filed as in vivo. How it is done: as §2

Entries after “also recorded” stand apart in the source; their conditions may differ. Read-outs that look alike come from different tables or passages of the source.

For `COc1ccc2cc([C@H](C)C(=O)O)ccc2c1` [Naproxen], the ED50 (in general, the midpoint of the dose-response relation) in series [1] (rat, carrageenin paw edema) fell in the range of 10 to 12 mg/kg; in series [2] (mice, phenylquinone writhing), 7.5 to 10 mg/kg; in the series on yeast-induced fever (rats, yeast-induced fever) it was 15 to 20 mg/kg.
Take `COc1ccc(-c2noc(C(OC)C(=O)O)c2-c2ccc(OC)cc2)cc1` (stereo not drawn) [Sodium 3,4-Di(p-methoxyphenyl)isoxazol-5α-methoxyacetate]: the ED50 was 120 mg/kg in series [1] (rat, carrageenin paw edema); 60 mg/kg in series [2] (mice, phenylquinone writhing); more than 120 mg/kg with yeast-induced fever (rats, yeast-induced fever).
Taken in the same sequence, the figures for `CC(C)Cc1ccc(C(C)C(=O)O)cc1` (centres unmarked) [Ibuprofen] were 15 to 30 mg/kg, 15 to 25 mg/kg and 15 mg/kg.
Taken in the same sequence, the figures for `CC1=C(CC(=O)O)c2cc(F)ccc2/C1=C\c1ccc([S+](C)[O-])cc1` (centres unmarked) [Sulindac] were 20 to 30 mg/kg, 7.5 to 10 mg/kg and 7.5 to 10 mg/kg.
Consider `CC(=O)Oc1ccccc1C(=O)O` [Aspirin], for which the 50% effective dose (ED50) in series [1] (rat, carrageenin paw edema) was 60 to 90 mg/kg; in series [2] (mice, phenylquinone writhing) it was 70 to 100 mg/kg. Further, in the series “in vivo [3]”, the 50% lethal dose (LD50) (as a rule, the dose at which mortality reaches 50%) came out at 1740 mg/kg.
On to `Cc1cccc(Nc2ccccc2C(=O)O)c1C` [Mefenamic Acid], for which the ED50 in series [1] (rat, carrageenin paw edema) lay within 45 to 55 mg/kg; in series [2] (mice, phenylquinone writhing) it was 7.5 to 10 mg/kg; with yeast-induced fever (rats, yeast-induced fever), 7.5 to 10 mg/kg.
For `COc1ccc2c(c1)c(CC(=O)O)c(C)n2C(=O)c1ccc(Cl)cc1` [Indomethacin], the ED50 is 7 to 9 mg/kg in series [1] (Rattus norvegicus), less than 1 mg/kg in series [2] and 3 to 5 mg/kg in the series on yeast-induced fever. Also, in “in vivo [3]”, the LD50 is 27 mg/kg.
`O=C(O)Cc1onc(-c2ccccc2)c1-c1ccccc1` [3,4-Diphenylisoxazol-5-acetic Acid]: the ED50 was found to be 120 mg/kg in series [1] (rat, carrageenin paw edema) and 120 mg/kg with yeast-induced fever (rats, yeast-induced fever). The LD50 in “in vivo [4]” is 670 mg/kg.
For the compound `COc1ccc(-c2noc(CC(=O)O)c2-c2ccc(OC)cc2)cc1` [3,4,-Di(p-methoxyphenyl)isoxazol-5-acetic Acid], the values for the ED50 (in series [1] (Rattus norvegicus); in series [2]; with yeast-induced fever) were 25 to 40 mg/kg, 1.8 mg/kg and more than 120 mg/kg, respectively. The “anti-inflammatory activity (in words)” value in series [1] (rat, listed as Example 4) was “remarkable anti-inflammatory and analgesic activities; also recorded: well within the range of the same activities shown for a number of established anti-inflammatory drugs and are markedly superior to the activities of known 3-arylisoxazol-5-acetic acids”. Also, in series [2] (mice, listed as Example 4), the “analgesic activity (in words)” value is “remarkable anti-inflammatory and analgesic activities; also recorded: well within the range of the same activities shown for a number of established anti-inflammatory drugs and are markedly superior to the activities of known 3-arylisoxazol-5-acetic acids”. For the same compound, in the series with rats (LD50 / anti-inflammatory ED50), the “therapeutic index LD50/anti-inflammatory ED50 (in words)” value is given as “favourable therapeutic index”. For the same compound, the “order of toxicity (in words)” value with rats (rats and mice) was “low order of toxicity”. Also, the LD50 in “in vivo [4]” was 1000 mg/kg. Further, in the series with cotton pellet granuloma, the “activity in antigranuloma test (in words)” value was “active in antigranuloma test”.
On to `O=C(O)Cc1cc(-c2ccccc2)no1` [3-Phenylisoxazol-5-acetic Acid, 3-phenylisoxazol-5-acetic acid], for which the ED50 in series [1] (rat, carrageenin paw edema) was 70 to 80 mg/kg; in series [2] (mice, phenylquinone writhing), 60 to 90 mg/kg; with yeast-induced fever (rats, yeast-induced fever), more than 135 mg/kg. Also, the “Acute Toxicity p.o. (dose with 100% mortality)” value with rats (p.o., rats, 100% mortality) came to 1500 mg/kg.
As for `COc1ccc(-c2cc(CC(=O)O)on2)cc1` [3-(p-methoxyphenyl)isoxazol-5-acetic acid], the median effective dose (ED50) is more than 135 mg/kg in series [1] (rat, carrageenin paw edema); 60 mg/kg in series [2] (mice, phenylquinone writhing); more than 120 mg/kg in the series with yeast-induced fever (rats, yeast-induced fever).
